Each structure is given as a SMILES string.

From PubChem BioAssay AID652053 (Broad Institute, 2013) come the findings set out here.

The subject of the test is Huh7 psiCHECK-miR122 Renilla luciferase reporter, 48 h. Kind of test: miR-122 inhibitors in Huh7 reporter cells, dose response, cell-based, Huh7 psiCHECK-miR122, Renilla luciferase, cherry-pick (AID 652053).
With `Cc1ccc(NS(=O)(=O)c2cc(C(=O)NCCSc3ccc(C)cc3)ccc2C)cc1`, the AC40 is 4.89 µM.

Regarding `COc1ccc(S(=O)(=O)NCc2ccccn2)cc1NC(=O)c1ccc(C)cc1`, the AC40 was 7.81 µM.

For `Cc1ccc(C)c(S(=O)(=O)NC2CCS(=O)(=O)C2)c1` (stereo unspecified), the AC40 was 8.66 µM.

On to `CCCNC(=O)NC[C@@H]1[C@@H](c2ccc(C3=CCCC3)cc2)[C@@H](CO)N1C(=O)CC`, for which the AC40 was 16.9 µM.

Take `C[C@@H]1CN([C@@H](C)CO)C(=O)c2cccc(NS(=O)(=O)c3ccccc3)c2O[C@@H]1CN(C)Cc1ccc(C(=O)Nc2ccccc2N)cc1`: the AC40 is 9.09 µM.

Take `O=S(=O)(NC(=NCc1ccccc1)c1ccc(F)cc1)c1ccc(Cl)cc1`: the AC40 was 13.7 µM.

Consider `Cc1ccc(S(=O)(=O)Nc2ccc3c(c2)CCC3)cc1`, for which the AC40 is 6.54 µM.

As to `C[C@H](CO)N1C[C@H](C)[C@H](CN(C)Cc2ccc(Cl)c(Cl)c2)Oc2c(NC(=O)Nc3ccc4c(c3)OCO4)cccc2C1=O`, the AC40 was 4.58 µM.

As for `Cc1ccc2ccccc2c1C(O)c1ncc(-c2ccccc2F)[nH]1` (stereo unspecified), the AC40 is 4.22 µM.

On to `Cc1cc(C)c(S(=O)(=O)NCCn2ccc3ccccc32)c(C)c1`, for which the AC40 was 1.93 µM.

`CC(C)(C)c1cc(C(=O)NNc2cccc(Cl)c2)n(Cc2ccccc2)n1`: the AC40 was 4.19 µM.

Turning to `COc1ccc(S(=O)(=O)Nc2cccc3c2O[C@H](CN(C)Cc2ccc(Cl)c(Cl)c2)[C@@H](C)CN([C@H](C)CO)C3=O)cc1`, the AC40 is 4.25 µM.

For `C[C@H]1CN([C@@H](C)CO)C(=O)c2cc(N(C)C)ccc2O[C@H]1CN(C)Cc1ccc(C(=O)Nc2ccccc2N)cc1`, the AC40 is 5.42 µM.

On to `CC(=O)c1c(C)[nH]c(C(=O)N(CCc2ccccc2)Cc2ccccc2)c1C`, for which the AC40 is 30.8 µM.

Turning to `O=C(C1CCCCC1)N1C[C@H]2[C@@H](c3ccccc31)[C@@H](CO)N2C(=O)c1ccccc1`, the AC40 is 1.37 µM.

Take `CC(C)(C)c1ccc(S(=O)(=O)Nc2ccc(C(O)(C(F)(F)F)C(F)(F)F)cc2)cc1`: the AC40 was 5.39 µM.

Turning to `COc1ccc(NC(=O)Nc2ccc3c(c2)C(=O)N([C@H](C)CO)C[C@@H](C)[C@@H](CN(C)S(=O)(=O)c2ccc(OC)cc2)O3)cc1`, the AC40 is 1.21 µM.

Consider `COc1cccc(N2CCN(C(=O)c3ccc(CS(=O)c4ccccc4Cl)o3)CC2)c1` (stereo unspecified), for which the AC40 was 15.8 µM.

Take `O=C(Nc1sc2c(c1C(=O)O)CCC2)c1cccs1`: the AC40 is 9.16 µM.

Turning to `COc1ccc(S(=O)(=O)N(C)C[C@H]2Oc3ccc(NC(=O)Nc4ccc(C(F)(F)F)cc4)cc3C(=O)N([C@H](C)CO)C[C@H]2C)cc1`, the AC40 was 1.81 µM.

As to `C[C@H]1CN([C@@H](C)CO)C(=O)c2cccc(NC(=O)C3CC3)c2O[C@@H]1CN(C)Cc1ccc(C(F)(F)F)cc1`, the AC40 is 0.42 µM.

On to `CC1CCN(C(=O)CN(c2ccc3c(c2)OCCO3)S(=O)(=O)c2ccccc2)CC1`, for which the AC40 was 2.51 µM.

On to `COc1ccccc1NS(=O)(=O)c1cc(NC(=O)CCC2CCCC2)ccc1N1CCOCC1`, for which the AC40 was 1.45 µM.

`CC1CCCCN1C(=O)c1cc2nc(-c3ccccc3)cc(-c3ccccc3)n2n1` (stereo unspecified): the AC40 is 2.46 µM.

For the compound `Cc1cc(C)c(S(=O)(=O)NC2CC3CCC2C3)c(C)c1` (stereo unspecified), the AC40 is 0.6 µM.

For the compound `C[C@H](CO)N1C[C@H](C)[C@H](CN(C)Cc2ccc3c(c2)OCO3)Oc2c(NC(=O)C3CCOCC3)cccc2C1=O`, the AC40 is 10.5 µM.

Regarding `O=C(C1CCC1)N1CCc2cc(S(=O)(=O)NCc3ccco3)ccc21`, the AC40 was 12.3 µM.

Take `Cc1cc(C)c(S(=O)(=O)N2CCN=C2c2ccccc2)cc1C`: the AC40 is 10.3 µM.

For the compound `COc1ccc(C)cc1S(=O)(=O)Nc1cccc(SC)c1`, the AC40 was 0.582 µM.

Regarding `CC(C)(C)NS(=O)(=O)c1ccc(OCC(=O)Nc2ccc3c(c2)OCCO3)cc1`, the AC40 is 14.7 µM.

With `CC(=O)N1CCSc2ccc(S(=O)(=O)NCCc3ccc(Cl)cc3)cc21`, the AC40 was 4.57 µM.

Take `COC(=O)c1[nH]c2ccccc2c1NC(=O)CN1CCCc2ccccc21`: the AC40 was 21.5 µM.

For `C[C@]12CC[C@H](O)C[C@H]1CC[C@@H]1[C@@H]2CC[C@]2(C)[C@@H](C3=CC(=O)OC3)CC[C@]12O`, the AC40 is 5.74 µM.

Consider `CCOC(=O)c1ccc(NS(=O)(=O)c2cc(C)ccc2OC)cc1`, for which the AC40 is 8.03 µM.

Turning to `COc1cccc(NS(=O)(=O)c2cc(C)ccc2OC)c1`, the AC40 is 1.53 µM.

Turning to `C[C@@H]1CN([C@@H](C)CO)C(=O)c2cccc(NC(=O)C3CC3)c2O[C@@H]1CN(C)Cc1ccc(C(=O)Nc2ccccc2N)cc1`, the AC40 is 3.72 µM.

Regarding `COc1ccc(NS(=O)(=O)c2cc(C)ccc2OC)cc1OC`, the AC40 is 3.76 µM.

For the compound `COc1ccc(NS(=O)(=O)c2cc3c(cc2C)N(C)CCO3)cc1`, the AC40 is 2.04 µM.

Consider `O=S(=O)(Nc1ccc(S(=O)(=O)N2CCCC2)cc1)c1ccccc1Br`, for which the AC40 is 4.34 µM.

For `O=C1c2ccccc2C2=Nc3ccccc3SC(c3ccccc3F)C12` (stereo unspecified), the AC40 was 21 µM.

With `COc1cc2oc3ccccc3c2cc1N(CC(=O)N(C)C)S(=O)(=O)c1ccccc1`, the AC40 is 4.54 µM.

As to `C[C@@H]1CN([C@H](C)CO)C(=O)c2cccc(NC(=O)Nc3ccc(F)cc3)c2O[C@H]1CN(C)Cc1ccc(C(F)(F)F)cc1`, the AC40 is 1.51 µM.

In the case of `O=C(NCc1ccco1)c1ccc(Cl)c(S(=O)(=O)Nc2ccccc2)c1`, the AC40 is 4.59 µM.

Consider `COc1ccc(OC)c(S(=O)(=O)Nc2cc3c4c(c2)CCC(=O)N4CCC3)c1`, for which the AC40 is 0.84 µM.

In the case of `COc1cc(S(=O)(=O)NC2CCCC2)c(OC)cc1Cl`, the AC40 was 2.6 µM.

Regarding `COc1ccc(-c2cc(C)no2)cc1S(=O)(=O)Nc1cccc(C)c1`, the AC40 is 0.83 µM.

As for `Cc1ccc(Cn2c(NS(=O)(=O)c3ccccc3)nc3ccccc32)cc1`, the AC40 is 2 µM.

Turning to `COc1ccc(OC)c(NS(=O)(=O)c2ccc(N3CCCC3=O)cc2)c1`, the AC40 was 14.8 µM.

With `C[C@H](CO)N1C[C@H](C)[C@H](CN(C)Cc2ccc(C(=O)Nc3ccccc3N)cc2)Oc2ccc(NC(=O)Nc3ccc(F)cc3)cc2CC1=O`, the AC40 was 9.84 µM.

Turning to `O=C(c1ccc(F)cc1)N1C[C@H]2[C@@H](c3ccccc31)[C@@H](CO)N2C(=O)c1ccccc1`, the AC40 was 17.6 µM.

For `C[C@H](CO)N1C[C@H](C)[C@@H](CN(C)Cc2ccc(Cl)c(Cl)c2)Oc2c(NS(=O)(=O)c3ccccc3)cccc2C1=O`, the AC40 is 2.54 µM.

For the compound `Cc1cc(C)c(C)c(S(=O)(=O)NC2CCCCC2)c1C`, the AC40 was 0.607 µM.

As for `O=C(Nc1ccc(S(=O)(=O)Nc2nccs2)cc1)c1cc(-c2ccccc2Cl)nc2ccccc12`, the AC40 is 2.48 µM.

In the case of `CC(=O)Nc1ccc(C(=O)Nc2ccc(S(=O)(=O)NCC3CCCO3)cc2)cc1` (stereo unspecified), the AC40 was 2.69 µM.

As for `CCC(C)c1ccc(NC(=S)NCc2cccs2)cc1` (stereo unspecified), the AC40 is 10.1 µM.

Regarding `Cc1cccc(-c2nn(-c3ccccc3)cc2C(=O)Nc2cccc(S(=O)(=O)NC3=NCCC3)c2)c1`, the AC40 was 18.3 µM.

Turning to `CCc1c(C(=O)NCc2ccccc2Cl)[nH]c(C)c1C(C)=O`, the AC40 is 1.38 µM.

In the case of `Cc1cc(S(=O)(=O)Nc2cccc(O)c2)c(C)s1`, the AC40 was 31 µM.

`CC(=O)N1CCCc2cc(S(=O)(=O)Nc3ccc4c(c3)OCO4)ccc21`: the AC40 was 6.16 µM.

With `Cc1ccc(S(=O)(=O)Nc2cccc(-c3ccc4nncn4n3)c2)cc1`, the AC40 was 9.35 µM.

Regarding `CCCCNS(=O)(=O)c1ccc(OC)c(Cl)c1Cl`, the AC40 was 3.99 µM.

As to `C[C@@H]1CN([C@@H](C)CO)C(=O)c2cccc(NC(=O)Nc3ccc(F)cc3)c2O[C@H]1CN(C)Cc1ccc(C(F)(F)F)cc1`, the AC40 is 3.97 µM.

In the case of `C[C@H](CO)N1C[C@H](C)[C@@H](CN(C)Cc2cncnc2)Oc2cc(C#CC3CCCC3)ccc2S1(=O)=O`, the AC40 is 0.805 µM.

On to `CCCC(=O)NC(=S)Nc1ccc(S(=O)(=O)Nc2ccc(OCC)cc2)cc1`, for which the AC40 was 1.42 µM.

`Cc1cc(C)c(C)c(S(=O)(=O)Nc2ccc3cn[nH]c3c2)c1C`: the AC40 is 0.694 µM.

As to `CCOC(=O)Nc1nc(-c2ccccc2)c(C(=O)c2ccc(Cl)cc2)s1`, the AC40 was 13.8 µM.

Take `Cc1noc(C)c1NC(=O)Nc1cccc2c1O[C@@H](CN(C)Cc1ccc(Cl)c(Cl)c1)[C@@H](C)CN([C@H](C)CO)C2=O`: the AC40 was 0.826 µM.

As for `Cc1cc(C(C)(C)C)cc(S(=O)(=O)NCCO)c1C`, the AC40 is 1.16 µM.

On to `COc1ccc(S(=O)(=O)N(C)C[C@H]2Oc3ccc(N(C)C)cc3C(=O)N([C@H](C)CO)C[C@@H]2C)cc1`, for which the AC40 is 9.52 µM.

With `O=C(NC1CCCC1)C(c1ccccc1F)N(C(=O)Cc1cccs1)c1ccc2c(c1)OCCO2` (stereo unspecified), the AC40 is 25.9 µM.

Take `O=S(=O)(NCc1cccs1)c1cccc(S(=O)(=O)N2CCCCC2)c1`: the AC40 is 6.72 µM.

In the case of `Cc1ccc(S(=O)(=O)Nc2cc(C)c(O)c(S(=O)(=O)c3ccc(C)cc3)c2)cc1`, the AC40 was 11.2 µM.

With `Nc1ncc(Br)cc1S(=O)(=O)NCCc1ccccc1`, the AC40 was 0.647 µM.

`CCCCNS(=O)(=O)c1ccc2nc(-c3cccnc3)cc(C(=O)NCCOC)c2c1`: the AC40 was 1.18 µM.

As for `COc1ccc(C(C)(C)C)cc1S(=O)(=O)n1ccnc1C`, the AC40 was 4.82 µM.

For the compound `C=CCNC(=O)c1ccccc1NC(=O)c1ccc(Cl)c(S(=O)(=O)Nc2cccc(C)c2C)c1`, the AC40 is 0.734 µM.

Regarding `CC1=CC(C)(C)N(S(=O)(=O)c2ccc(C)cc2)c2cc(C)ccc21`, the AC40 is 3.72 µM.

As to `O=C(NCc1ccccn1)c1cccc(NS(=O)(=O)c2cccc(F)c2)c1`, the AC40 is 5.83 µM.

For the compound `CCc1cccc2c(C(=O)CN3C(=O)NC4(CCCCC4)C3=O)c[nH]c12`, the AC40 was 6.01 µM.

As to `Cc1cc(S(=O)(=O)NCC(c2ccccc2)c2ccccc2)ccc1-n1cnnn1`, the AC40 is 2.23 µM.

`COc1ccc(S(=O)(=O)NCCSC(C)(C)C)c(Cl)c1Cl`: the AC40 was 8.16 µM.

Take `CN1CCN(C(=O)c2cc3nc(-c4ccccc4)cc(-c4ccccc4)n3n2)CC1`: the AC40 was 2.23 µM.

In the case of `COc1cc(S(=O)(=O)N(CCc2ccccc2)Cc2cccs2)ccc1-n1cnnn1`, the AC40 was 1.33 µM.

In the case of `C[C@@H]1CN([C@H](C)CO)C(=O)c2cccc(NC(=O)NC3CCCCC3)c2O[C@H]1CN(C)Cc1ccc(Cl)c(Cl)c1`, the AC40 was 0.891 µM.

`C[C@@H]1CN([C@H](C)CO)C(=O)c2cccc(NS(C)(=O)=O)c2O[C@@H]1CN(C)Cc1ccc(C(F)(F)F)cc1`: the AC40 was 12.5 µM.

Turning to `O=C1COc2ccc(S(=O)(=O)Nc3ccc(F)cc3)cc2N1`, the AC40 is 5.23 µM.
